Source: patent US12421496B2, “Method for producing natural killer cell and use thereof” (KOREA RESEARCH INSTITUTE OF BIOSCIENCE AND BIOTECHNOLOGY, priority 2017, dated 2025)

B1: IL-7: human interleukin 7, cytokine additive (protein, UniProt P13232 26-177, looked up)
Interleukin-7: DCDIEGKDGKQYESVLMVSIDQLLDSMKEIGSNCLNNEFNFFKRHICDANKEGMFLFRAARKLRQFLKMNSTGDFDLHLLKVSEGTTILLNCTGQVKGRKPAALGEAQPTKSLEENKSLKEQKKLNDLCFLKRLLQEIKTCWNKILMGTKEH

Legend:
[1] = tested on: PBMC cells into which OSKM was introduced; assay: Efficiency of direct reprogramming depending on composition of NKIM-II medium; assay type: cell-based, human; conditions: added to NKIM-II medium, cultured for 29 days after 6 days in NKIM-I
Description: (§1) After introducing reprogramming factors (Oct4, Sox2, Klf4, and Myc) into PBMC cultured in the NKIM-I medium and NKIM-II medium, a mixture additive was added to the medium for analysis to promote the production capacity of natural killer cells produced by direct reprogramming.
In the case of NKIM-II medium, after introducing OSKM into PBMC cells, the following day, 1×10^5 transformed cells were added to a 48-well culture dish and cultured in NKIM-I medium for 6 days, and then these cells were cultured for 29 days in a medium in which StemRegenin I, which is an aryl hydrocarbon receptor antagonist, CH-223191, or FICZ, which is an aryl hydrocarbon receptor agonist, was added to NKIM-II.

[2] = tested on: PBMC into which OSKM was introduced; assay: Efficiency of direct reprogramming depending on composition of NKIM-I medium; assay type: cell-based, human; conditions: single additive in NKIM-I medium compared with the condition without additives
Description: as §1
Specifically, in the case of NKIM-I medium, after introducing OSKM into PBMC, the following day, 1×10^5 transformed cells were added to a 48-well culture dish in the reprogramming culture process with different combinations of 5 μM CHIR 99021, 2 mM LiCl, […], and 20 ng/mL human IL-15 in NKIM-I medium, and the production capacity of CD56+ induced natural killer cells was thereby confirmed.

PBMC (CD34−CD56−) cells = assay: Role of GSK3β inhibitor in direct reprogramming from PBMC to natural killer cells, flow cytometry; assay type: cell-based, human; conditions: when CT99021 (5 μM) was not added to NKIM-I medium, compared with added; 24th day
Description: On the 24th day when direct reprogramming was started as in Example 1, the cells were recovered and stained using antibodies against CD56 and CD4 attached with fluorescence and then the group of natural killer cells (CD56^+ and CD4^−) was analyzed by flow cytometry.

SW620 = assay: In vivo anti-cancer effect, subcutaneous SW620 tumor in nude mice; set-up: species or system Balb/c-nude mouse; conditions: 2 mg/kg i.p. every other day for two weeks; day 28
Description: In addition, in vivo experiments were performed using mice to verify the anti-cancer effect of induced natural killer cells. The day after subcutaneous injection of 2×10^6 Sw620 into the back of 8-week-old nude mice (Balb/c-nude mouse, average weight 20 g to 25 g), induced natural killer cells (5×10^6, 1.5×10^7) and 2 mg/kg of doxorubicin were injected. Induced natural killer cells were injected intravenously (i.v.) twice on D1 and D4, and doxorubicin was injected intraperitoneally (i.p) every two days (every other day) for two weeks. On the 28th day, the mice of each group were sacrificed by cervical dislocation technique, and the protruding cancer masses formed under the skin of the mice of each group were extracted. The extracted Sw620 cancer was compared by group to confirm the anti-cancer effect of induced natural killer cells (FIG. 13A).

Molecule | yield of induced natural killer cells [1] | production of CD56+CD3− induced natural killer cells [2] | further results
Cc1ccccc1N=Nc1ccc(NC(=O)c2ccnn2C)c(C)c1 [CH-223191] | significantly increased |  | 
Cc1c[nH]c(-c2cnc(NCCNc3ccc(C#N)cn3)nc2-c2ccc(Cl)cc2Cl)n1 [CT99021] |  | effect of promoting the production | differentiation into natural killer cells (CD56+ and CD4−) (PBMC (CD34−CD56−) cells): significantly lowered
O=Cc1c2[nH]c3ccccc3c2cc2[nH]c3ccccc3c12 [FICS] | significantly reduced |  | 
[Cl-].[Li+] [LiCl] |  | effect of promoting the production | 
CC(C)n1cnc2c(NCCc3ccc(O)cc3)nc(-c3csc4ccccc34)nc21.Cl [StemRegenin I, (4-(2-((2-benzo[b]thiphen-3-yl)-9-isopropyl-9H-purin-6-yl)amino)ethyl)phenol hydrochloride] | significantly increased | effect of promoting the production | 
COc1cccc2c1C(=O)c1c(O)c3c(c(O)c1C2=O)C[C@@](O)(C(=O)CO)C[C@@H]3O[C@H]1C[C@H](N)[C@H](O)[C@H](C)O1 [doxorubicin] |  |  | tumor size (SW620): 262 mm^3
IL-15: human interleukin 15, cytokine additive |  | effect of promoting the production | 
B1 |  | effect of promoting the production | 
